Data reported in patent publication US20170105647A1, “SYSTEMS AND METHODS FOR IDENTIFYING NEUROBIOLOGICAL BIOMARKERS USING EEG” (Children's Medical Center Corporation, priority 2014, published 2017).
Several values for one entry are separate records, joined by “and”; a condition that tells them apart may be missing. Equal entries are not always repeated.

Key:
Assay type in all cases: in vivo, human
[1] = tested on: children with regressive autism (R-ASD), STAR group; test: Subjective evaluation of EEG abnormality, change from first to second study
Source text: Subjective Evaluation of EEG Abnormality: All first and second EEG studies were visually reassessed by a pediatric electroencephalographer blinded to subject history and group identity. All EEGs were reviewed in randomly selected order with respect to group and study order. Each EEG was scored as showing in ascending order of abnormality (if present): paroxysmal sharp theta, sharp waves, and spike or spike wave discharges. After this “blinded” estimation was completed, EEG results were sorted into first and second EEG study order, without group identity; subsequently the electroencephalographer compared each subject's two sequential EEGs and classified their scores as showing “worsening”, “no change”, or “improvement” between the first and second study.

[2] = tested on: children with regressive autism (R-ASD), STAR group; test: 4 Hz frequency modulated auditory evoked response (FMAER), before vs after steroid treatment; conditions: for Mean Diff. (mean of pre to post difference of 4 Hz FMAER spectral power): STAR group n = 20, oral 2 mg/kg/day
Source text: In this example, subjects with regressive autism were utilized to determine whether application of a corticosteroid would improve language function and show an improved 4 Hz FMAER. […] A pharmacologically untreated clinical convenience sample of children with ASD served as controls.
Steroid Treated Autism with Regression (STAR): The target group of study subjects was limited to children aged 3-5 years old, diagnosed as having autism with a historically documented period of regression at onset. Regression was defined as the loss of age appropriate language, communication, cognitive ability, and behavior determined by the referring physician and confirmed by the treating neurologist. Patients with a slowly developing plateau or a very slow regression over a prolonged period of time, as opposed to an abrupt regression, were not included in the STAR group.
Steroid Treatment STAR Patients: Oral prednisolone (Prelone™ or Orapred™) was administered by the parents on a daily basis at 2 mg/kg/day. Dosage was occasionally down-adjusted on the basis of minor complications.
All subjects' electrophysiological data utilized in this study were gathered from 30 scalp channels via gold cup electrodes applied with collodion after careful measurement. A 31st channel carried the FMAER trial marker. A 32nd channel carried eye movement and blink artifact information. Data were digitized at 256 Hz after amplification by a Cardionics™ 32 channel EEG amplifier (Cardionics Inc. 910 Baystar Blvd, Webster, Tex. 77598 USA) set to 1-100 Hz pass band. The 30 EEG scalp channels used included the following: FP1, FP2, F7, F3, FZ, F4, F8, FC5, FC1, FC2, FC6, T7, C3, CZ, C4, T8, CP5, CP1, CP2, CP6, P7, P3, PZ, P4, P8, O1, OZ, O2, TP9, and TP10 [28]. Data for the FMAER were gathered over 5-20 minutes with additional time allowed for rest breaks as indicated. The patient and a parent, when behaviorally indicated, were together within view of the technologist through a one-way mirror window in a sound-shielded room, adjacent to the recording equipment. Off-line, the EEG data and accompanying trial markers were visually evaluated and epochs containing excessive eye-blink, muscle and movement artifact were marked for removal from subsequent analysis. All 30 channel data were visually inspected for EEG abnormalities and for creating the common average reference. For the current study, FMAER analysis was restricted to 14 active scalp electrodes: F7, F8, T7, T8, P7, P8, TP9, TP10, F3, F4, C3, C4, P3, and P4.
Frequency Modulated Auditory Evoked Response (FMAER): Language comprehension requires decoding of rapidly changing speech streams; detection of FM within speech has been hypothesized as essential for accurate phoneme detection and word comprehension. The FMAER was developed as a steady-state EP to assess the brain's response to rapid changes in the frequency modulation (FM) of an applied auditory stimulus in extension of and based upon the pioneering work of Green, Stefanatos and others. […] Midline frontal electrodes (FZ, FC1, FC2) usually manifest bilateral overlapping source dipole projection. […] The FMAER may be normal, or as in pathology, of low amplitude, distorted, or absent. In rare cases of pathology the FMAER source location may be outside the usual STG location and/or the source dipole may point in unexpected directions..
As previously detailed, the FMAER was formed from a carrier sine wave at 1000 Hz frequency modulated by a slower 10 Hz sine wave causing the frequency of the carrier wave to shift (“deviate”) between […] at the 10 Hz rate, producing a warbling tone. The 10 Hz sine wave was then amplitude modulated by a slower 4 Hz sine wave such that the warbling (FM modulation) was sinusoidally turned on and off (AM modulated) at the 4 Hz rate. This process caused the 10 Hz “warbling” of the 1000 Hz sine wave carrier to be sinusoidally turned fully on and off (100% modulation) at 4 Hz. […]

[3] = tested on: children with regressive autism (R-ASD), STAR group; test: DSM-IV criteria for Autistic Disorder, scaled behavioral score
Source text: Behavioral Assessment: The DSM-IV criteria for Autistic Disorder (299.0), aside from employment for diagnosis, were scaled in terms of severity for each STAR group child and the sum of the scaled scores was assigned as behavioral score. The direction of scaling was defined such that the higher the score was, the more severe the behavioral manifestations of ASD were. The symptom items and scaling are described in Table 2. […] Summed scaled item scores were assigned in order to quantify behavioral change in analogy to language change. For the current study scores were selected for the office visit nearest to the first and the second EEG/FMAER studies respectively. Scorers had no knowledge of the current study's goals or design, the future group status of subjects, or the subjects' FMAER results. The NSA group subjects lacked the DSM-IV based behavior scores.

[4] = tested on: children with regressive autism (R-ASD), STAR group; test: Clinical Language Status Questionnaire (CLSQ) language assessment
Source text: Language Assessment, STAR Group: STAR group subjects were followed by their child neurologists using a clinical language assessment, referred to as the “Clinical Language Status Questionnaire (CLSQ)” which was developed in-house well prior to the current study. It is as yet unpublished. The assessment was designed to assist pediatric neurologists involved in the pharmacological treatment of neurological disorders, in estimating language progress or lack thereof—from a child's parent(s)' report and the clinician's direct assessment at the time of a clinical visit. It involves evaluation of both the child's current best expressive and receptive language performance. In the current study, documentation of lack of response improvement or plateau, along with assessment of medical complication(s), constituted the primary evidence used for treatment discontinuation. […] The term “Appears normal” (Table 1) was defined as the clinician's and family's report of normal, age-appropriate speech. None of the children in this study received this score. “Appears nearly normal” was defined as context and age appropriate speech with evidence of mispronunciations, poor or odd word choice, unusual fluency or unusually sparseness, unusual grammatical errors such as errors in tense, pronoun gender match and/or pluralization, and/or requirement of adult speech simplification in order to assure comprehension relative to age expectancy. The difference between “short meaningful 1-2 word phrases” and “meaningful 3+ word phrases” is self-explanatory. Although many well developed language tests exist, as documented by the American Speech-Language-Hearing Association (www.asha.org/assessments.aspx), most tend to be detailed yet too coarsely grained to capture this population's limited language range. They are also typically too time-consuming for repeated administration by neurologists during recurring, clinical check-in visits. In contrast, the CLSQ may be completed in less than ten minutes. An additional advantage of the CLSQ for the current study was its comprehensiveness in capturing the full—while limited—range of language change observed in this patient population. Parents are shown short phrases (without the numerical scores) and asked to identify their child's current relevant expressive and receptive status. The neurologist stands by to clarify, assist, and help resolve two caregivers' divergent opinions. Neurologists using the CLSQ are sensitive to the language performance definitions in question. The study subjects' CLSQ score assignments occurred without prior knowledge of the current study.

[5] = STAR group n = 20, blinded visual EEG rating
[6] = STAR group n = 20, pre- to post-treatment, CLSQ scale 0-10

Structure (SMILES): C[C@]12C=CC(=O)C=C1CC[C@@H]1[C@@H]2[C@@H](O)C[C@@]2(C)[C@H]1CC[C@]2(O)C(=O)CO [prednisolone]
- EEG change Time 1 to Time 2: number of subjects Improved [1, 5]: 3
- EEG change Time 1 to Time 2: number of subjects No Change [1, 5]: 10
- EEG change Time 1 to Time 2: number of subjects Worse [1, 5]: 7
- Steroid effect on EEG abnormalities by visual inspection ([1]; STAR vs NSA, Fisher's exact test n.s.): little evidence for a physiologically meaningful steroid effect on EEG
- Electrode measurements of the FMAER 4 Hz response with significant change before vs after steroid therapy ([2]; STAR group, matched-paired t-test, 14 electrodes): nine of 14 and 9 of 14
- FMAER response distortion (spectral spread) after steroid treatment ([2]; all STAR subjects, FFT of FMAER): reduction of distortion
- Mean Diff. (mean of pre to post difference of 4 Hz FMAER spectral power) ([2]; electrode C3): 24.15 μV^2/Hz
- Mean Diff. (mean of pre to post difference of 4 Hz FMAER spectral power) ([2]; electrode C4): 22.66 μV^2/Hz
- Mean Diff. (mean of pre to post difference of 4 Hz FMAER spectral power) ([2]; electrode F3, mean 9.125 months): 47.18 μV^2/Hz
- Mean Diff. (mean of pre to post difference of 4 Hz FMAER spectral power) ([2]; electrode F4): 64.31 μV^2/Hz
- Mean Diff. (mean of pre to post difference of 4 Hz FMAER spectral power) ([2]; electrode F7): 3.38 μV^2/Hz
- Mean Diff. (mean of pre to post difference of 4 Hz FMAER spectral power) ([2]; electrode F8): 18.47 μV^2/Hz
- Mean Diff. (mean of pre to post difference of 4 Hz FMAER spectral power) ([2]; electrode P3): 10.49 μV^2/Hz
- Mean Diff. (mean of pre to post difference of 4 Hz FMAER spectral power) ([2]; electrode P4): 10.52 μV^2/Hz
- Mean Diff. (mean of pre to post difference of 4 Hz FMAER spectral power) ([2]; electrode P7): 65.08 μV^2/Hz
- Mean Diff. (mean of pre to post difference of 4 Hz FMAER spectral power) ([2]; electrode P8): 77.83 μV^2/Hz
- Mean Diff. (mean of pre to post difference of 4 Hz FMAER spectral power) ([2]; electrode T7): 15.49 μV^2/Hz
- Mean Diff. (mean of pre to post difference of 4 Hz FMAER spectral power) ([2]; electrode T8): 30.60 μV^2/Hz
- Mean Diff. (mean of pre to post difference of 4 Hz FMAER spectral power) ([2]; electrode TP9): 56.91 μV^2/Hz
- Mean Diff. (mean of pre to post difference of 4 Hz FMAER spectral power) ([2]; electrode TP10): 83.49 μV^2/Hz
- Average DSM-IV Score (mean of 14 scored items, 0-3 each) ([3]; After treatment): 0.9857
- Average DSM-IV Score (mean of 14 scored items, 0-3 each) ([3]; Before treatment (baseline)): 2.0677
- Scaled DSM-IV symptom summary scores after steroid treatment ([3]; p≦0.00001): highly significant improvement
- Expressive Language change Time 1 to Time 2: number of subjects Better ([4]; STAR group n = 20): 17
- Expressive Language change Time 1 to Time 2: number of subjects NoDiff ([4]; STAR group n = 20): 2
- Expressive Language change Time 1 to Time 2: number of subjects Worse ([4]; STAR group n = 20): 1
- Receptive Language change Time 1 to Time 2: number of subjects Better ([4]; STAR group n = 20): 17
- Receptive Language change Time 1 to Time 2: number of subjects NoDiff ([4]; STAR group n = 20): 3
- Receptive Language change Time 1 to Time 2: number of subjects Worse ([4]; STAR group n = 20): 0
- Mean Diff. of CLSQ score, Time 1 to Time 2, Expressive language [4, 6]: 4.10
- Mean Diff. of CLSQ score, Time 1 to Time 2, Receptive language [4, 6]: 4.80
- STAR group subjects showing improvement in language ratings ([4]; receptive and expressive, study 1 to study 2): 17/20
